From paper PMC7144376, “Antiviral Effects of Novel 2-Benzoxyl-Phenylpyridine Derivatives” (Molecules, 2020)

What was measured:
[1] = Cytotoxicity on uninfected HeLa cells (MTT, 48 h); format: cell-based; conditions: human, read-out: CC50 (reduce cell viability by 50%), ADV7 host cells
Procedure: Human laryngeal carcinoma cells (Hep-2) and human cervical carcinoma cells (HeLa) were maintained in DMEM (Gibco) supplemented with 10% fetal bovine serum (FBS; Gibco), 100 U/mL penicillin and streptomycin, and 2 mM L-glutamine.
The antiviral activities of compounds against CVB3 and ADV7 were determined by measuring their inhibition of virus-induced CPEs in acutely infected Hep-2 and HeLa cells, respectively. Confluent cell monolayers in 96-well plates were infected with 100 TCID50 of CVB3 or ADV7 for 1.5 h at 37 °C, inocula were aspirated, and the cells then were incubated with various concentrations of compounds at 37 °C, 5% CO2, for 48 h. CPEs were observed by microscopy and the viability of cells was determined using MTT assays. The concentrations of test compounds required to achieve 50% protection from virus-induced cytopathogenicity (EC50 values) were determined. Adverse effects of tested compounds on host cells were also assessed using the MTT method after exposing uninfected cells to various concentrations of test compounds for 48 h at 37 °C. The CC50 values of compounds were calculated using SPSS software and selectivity indices were the ratio of CC50:EC50. Each experiment was performed in triplicate and at least three times, independently.

[2] = system: CVB3; assay: CVB3 progeny virus yield in Hep-2 cells (TCID50 titration); format: cell-based, Coxsackievirus B3; conditions: 36 h, 120 μM W-9, 160 μM W-13, 160 μM W-15, 160 μM ribavirin
Procedure: (§1) Based on their antiviral activities and therapeutic selectivity indices, the effects on virus progeny yields of compounds W9, W13, and W15 were further investigated, using ribavirin as a positive control drug. To this end, confluent monolayers of Hep-2 or HeLa cells in 96-well plates were infected with 100 × median tissue culture infective dose (TCID50) of CVB3 or ADV7, then treated with 120 μM W-9, 160 μM W-13, 160 μM W-15, or 160 μM ribavirin. After 36 h, culture media and cell lysates were collected, following freeze-thaw cycles, and then subjected to virus titration.
(§2) Figure 2 The effects of W9, W13, and W15 on progeny virus production. Hep-2 cells infected with 100 TCID50 of CVB3 (a), or HeLa cells infected with 100 TCID50 of ADV7(b), were incubated in the absence (virus control) or presence of 120 μM W-9, 160 μM W-13, 160 μM W-15, or 160 μM ribavirin for 36 h, and the culture media and cell lysates then harvested for virus titration. Viral titers are presented as Log10 TCID50/mL. * p < 0.05; ** p < 0.01, compared with the virus control group.
(§3) CVB3 or ADV7 suspensions, serially diluted 10-fold with DMEM containing 2% FBS (DMEM maintenance medium, MM), were inoculated to Hep-2 or HeLa cells in 96-well plates. After 1.5 h incubation at 37 °C in 5% CO2, unbound virus was washed out and the MM was added to the cells. After 2 days, infected cells were monitored for CPEs and virus titers were calculated using the Reed–Muench method.

[3] = system: ADV7; assay: ADV7 progeny virus yield in HeLa cells (TCID50 titration); format: cell-based, adenovirus type 7; conditions: 36 h, 120 μM W-9, 160 μM W-13, 160 μM W-15, 160 μM ribavirin
Procedure: as §1, §2, §3

[4] = system: CVB3; assay: Analysis of effective stage (prevention, mixture, treatment modes); format: cell-based, Coxsackievirus B3; conditions: Hep-2 cells, cell viability after 48 h; for inhibition of CVB3, compound added just before or during infection: prevention and mixture modes; for inhibitory effect against CVB3, compound added post infection: treatment mode
Procedure: The mechanisms by which W9, W13, and W15 inhibit CVB3 infection were further investigated by three different approaches, using ribavirin as a positive control. Antiviral effects against CVB3 were detected by measuring cell viability after 48 h of infection when cells were treated with compounds W9, W13, and W15 before, simultaneously, or after inoculation with CVB3 (100 TCID50).
(§4) Figure 3 Analysis of the modes of action of W9, W13, and W15 against CVB3. (a) Analysis of effective stage. The antiviral effects of test compounds against CVB3 were detected by measuring cell viability after 48 h of infection when cells were treated with W9, W13, or W15 before, simultaneously, or after inoculation with CVB3 (100 TCID50). (b) Analysis of the effects on CVB3 adsorption. Mock-, 120 μM W-9-, 160 μM W-13-, 160 μM W-15-, or 160 μM ribavirin-treated CVB3 (10^6 TCID50) was inoculated onto Hep-2 cells and adsorbed for 2 h. Infected cells were then harvested and subjected to virus titration, using the TCID50 method. (c) The effects of test compounds on CVB3 release from Hep-2 cells. Hep-2 cells infected with 100 TCID50 of CVB3 were incubated with test compounds for 12 h, then cells and culture supernatants (intra- and extracellular) analyzed for virus yield, separately or together. Mock, no infection; VC, virus control. Values represent the means ± SDs of three independent experiments. * p < 0.05; ** p < 0.01, compared with the virus control group.
To identify the step in the life cycle of CVB3 that was affected by the compounds, various concentrations of W9, W13, and W15 were added to Hep-2 cells, and the following three treatment procedures conducted: (i) To evaluate preventive effects (prevention mode of action), various concentrations of compounds were added to cells for 2 h at 37 °C, followed by washing with MM before virus infection; (ii) To analyze for inhibition of adsorption (mixture mode of action), a mixture of compound and virus was added to cells for 2 h at 37 °C, followed by washing with MM; (iii) To assess therapeutic effects (treatment mode of action), cells were first infected for 2 h at 37 °C, followed by washing with MM, addition of the compounds, and incubation for the duration of the experiment. For all procedures, cell viability was estimated after 48 h of infection, using MTT assays.

[5] = system: CVB3; assay: Viral adsorption/entry analysis; format: cell-based, Coxsackievirus B3; conditions: Hep-2 cells, CVB3 10^6 TCID50, 2 h adsorption; 120 μM W-9, 160 μM W-13, W-15, ribavirin
Procedure: as §4
To this end, Hep-2 cells were mock-treated or inoculated with CVB3 (10^6 TCID50) treated with 120 μM W-9, 160 μM W-13, 160 μM W-15, or 160 μM ribavirin, and adsorbed for 2 h. Infected cells were then harvested and subjected to virus titration, using the TCID50 method.
Cells were infected with CVB3 (10^6 TCID50) containing 120 μM W-9, 160 μM W-13, 160 μM W-15, or 160 μM ribavirin, after 2 h adsorption at 37 °C, inocula were discarded, and the cells were washed three times with phosphate buffered saline (PBS), harvested, following three freeze-thaw cycles, and subjected to virus titration. Cells infected with CVB3 in the absence of test compounds were used as untreated virus-infected controls.

Row | SMILES | CC50 at 48 h [1] | reduction in CVB3 virus progeny titer relative to untreated control [2] | reduction in ADV7 virus progeny titer relative to untreated control [3] | inhibition of CVB3, compound added just before or during infection [4] | inhibitory effect against CVB3, compound added post infection [4] | virus titer during virus attachment (adsorption/entry) [5]
1 | O=C(Oc1cc(Cl)ccc1-c1ccccn1)c1ccccc1 [W9] | 265 ± 28.1 µM | approximately 2.5 log | approximately 2.0 log | no significant inhibition | most powerful inhibitory effects | no significant decrease in virus titer
2 | CC(=O)Oc1ccc(-c2ccccn2)c(OC(=O)c2ccccc2)c1 [W15] | 795 ± 33.8 µM | approximately 2.5 log | approximately 2.0 log | no significant inhibition | most powerful inhibitory effects | no significant decrease in virus titer
3 | Cc1ccc(OC(=O)C(C)(C)C)c(-c2ccccn2)c1 [W13] | > 372 µM | approximately 2.5 log | approximately 2.0 log | no significant inhibition | most powerful inhibitory effects | no significant decrease in virus titer
4 | NC(=O)c1ncn([C@@H]2O[C@H](CO)[C@@H](O)[C@H]2O)n1 [Ribavirin, reference compound] | 807 µM | approximately 2.0 log | ~1.7 log |  |  | no significant decrease in virus titer
